# Test results published in patent US11957684B2, “Treatment of heavy menstrual bleeding associated with uterine fibroids” (Sumitomo Pharma Switzerland GmbH, priority 2016, dated 2024).
# Like-named read-outs stand apart in the source and are kept apart here.
# Columns and labels:
# uterine fibroids = test: Example 10 phase 3 study versus leuprorelin in uterine fibroids: efficacy; type: in vivo, human; details: between Week 6 and Week 12
# Method: Subjects were aged 20 years or older inclusive, with uterine fibroids. […] The number of sites for this study was approximately 40.
# The leuprorelin subjects were administered 1.88 mg leuprorelin, 3.75 mg leuprorelin, or placebo subcutaneously once every 4 weeks. The duration of treatment for both groups was 24 weeks, and the follow-up period was 4 weeks.
# Assessment included answers to the uterine fibroid symptom and quality of life questionnaire provided in FIGS. 3A-3C; answers to the work productivity and activity impairment questionnaire: general health provided in FIGS. 66A-66B; clinical laboratory tests for hematology, chemistries, urinalysis, hormone, and biochemical bone metabolism markers.
# [1] = tested on: endometriosis-associated pain; type: in vivo, human; details: 3.75 mg sc/4 wk
# Method: Subjects assessed and recorded their own quality of life (QOL) using the EHP-30 once a month during the study visit. As used in the examples, the VAS score was evaluated using a 100 mm scale. For pain intensity, the scale was anchored by “no pain” (score of 0) and “pain as bad as you can imagine” (score of 100). […] The above items were evaluated using a patient diary that was distributed by the sponsor. Subjects filled out the patient diary every day during the treatment period or until early termination. If taking prohibited analgesics, subjects recorded this fact in the patient diary along with the accompanying pain symptoms before use of analgesics. As used in the examples, pain during menstruation and pelvic pain unrelated to menstruation were evaluated using scores on the M-B&B and B&B. The M-B&B scores were recorded by subjects on the patient diary supplied by the sponsor. Subjects filled out the patient diary every day during the treatment period or until early termination. If taking prohibited analgesics, subjects recorded this fact in the patient diary along with the accompanying pain symptoms before use of analgesics. The investigator or subinvestigator assessed each patient's pain through interviews and filled out a B&B once a month. The items that were assessed are shown below. The M-B&B score included: dysmenorrhea (severe, moderate, mild, no pain, or no menstruation); pelvic pain (severe, moderate, mild, or no pain); deep dyspareunia (severe, moderate, mild, no pain, or no intercourse). The B&B score included: dysmenorrhea (severe, moderate, mild, none, or not applicable); dyspareunia (severe, moderate, mild, none, or not applicable); pelvic pain (severe, moderate, mild, or none); pelvic tenderness (severe, moderate, mild, or none); and induration (severe, moderate, mild, or none). As used in the examples, the EHP-30 score was obtained by subjects assessing and recording their own QOL using the EHP-30 questionnaire.
# [2] = end of treatment, listed as leuprorelin
compound,measurement,setting,value
"CCNC(=O)[C@@H]1CCCN1C(=O)[C@H](CCCNC(=N)N)NC(=O)[C@H](CC(C)C)NC(=O)[C@@H](CC(C)C)NC(=O)[C@H](Cc1ccc(O)cc1)NC(=O)[C@H](CO)NC(=O)[C@H](Cc1c[nH]c2ccccc12)NC(=O)[C@H](Cc1c[nH]cn1)NC(=O)[C@@H]1CCC(=O)N1 [leuprolide acetate, reference compound]",proportion of subjects with a PBAC <10,uterine fibroids,83.1%
same,"change from baseline in mean VAS, dysmenorrhea",[1]; Day 1-28,−9.985±15.7027 mm
same,"change from baseline in mean VAS, dyspareunia",[1]; Day 1-28,−3.126±17.0520 mm
same,"change from baseline in mean VAS, pelvic pain",[1]; Day 1-28,−4.282±7.3628 mm
same,"mean VAS score, dysmenorrhea",[1]; Day 1-28,17.133±19.4179 mm
same,"mean VAS score, dyspareunia",[1]; Day 1-28,7.288±16.2960 mm
same,"mean VAS score, pelvic pain",[1]; Day 1-28,10.899±14.8866 mm
same,"change from baseline in mean VAS, dysmenorrhea",[1]; Day 57-84,−27.558±19.9878 mm
same,"change from baseline in mean VAS, dyspareunia",[1]; Day 57-84,−6.752±10.5824 mm
same,"change from baseline in mean VAS, pelvic pain",[1]; Day 57-84,−10.364±10.4428 mm
same,"mean VAS score, dysmenorrhea",[1]; Day 57-84,0.000±0.0000 mm
same,"mean VAS score, dyspareunia",[1]; Day 57-84,5.478±10.7612 mm
same,"mean VAS score, pelvic pain",[1]; Day 57-84,5.013±12.0454 mm
same,"change from baseline in mean VAS, dysmenorrhea",[1]; Day 141-168,−28.373±20.7287 mm
same,"change from baseline in mean VAS, dyspareunia",[1]; Day 141-168,−4.953±16.9523 mm
same,"change from baseline in mean VAS, pelvic pain",[1]; Day 141-168,−13.804±12.8288 mm
same,"mean VAS score, dysmenorrhea",[1]; Day 141-168,0.000±0.0000 mm
same,"mean VAS score, dyspareunia",[1]; Day 141-168,5.565±12.5556 mm
same,"mean VAS score, pelvic pain",[1]; Day 141-168,2.167±5.1999 mm
same,"change from baseline in EHP-30, Self-image",[1]; Week 24,−9.42±15.553
same,"change from baseline in EHP-30, control & powerlessness",[1]; Week 24,−24.80±23.839
same,"change from baseline in EHP-30, emotional well-being",[1]; Week 24,−12.37±18.332
same,"change from baseline in EHP-30, pain",[1]; Week 24,−26.38±20.341
same,"change from baseline in EHP-30, social support",[1]; Week 24,−10.46±17.923
same,"change from baseline in mean B&B score, dysmenorrhea",[1]; Week 24,−2.1±0.49
same,"change from baseline in mean B&B score, dyspareunia",[1]; Week 24,−0.5±0.88
same,"change from baseline in mean B&B score, induration",[1]; Week 24,−0.8±0.82
same,"change from baseline in mean B&B score, pelvic pain",[1]; Week 24,−1.2±0.72
same,"change from baseline in mean B&B score, pelvic tenderness",[1]; Week 24,−1.1±0.78
same,"subjects without pain in B&B score, dysmenorrhea",[1]; Week 24,100%
same,"subjects without pain in B&B score, dyspareunia",[1]; Week 24,70.6%
same,"subjects without pain in B&B score, induration",[1]; Week 24,75.4%
same,"subjects without pain in B&B score, pelvic pain",[1]; Week 24,68.9%
same,"subjects without pain in B&B score, pelvic tenderness",[1]; Week 24,70.5%
same,"change from baseline in maximum M-B&B score, dysmenorrhea",[1]; end of treatment,−1.9±0.69
same,"change from baseline in maximum M-B&B score, dyspareunia",[1]; end of treatment,−0.4±0.78
same,"change from baseline in maximum M-B&B score, pelvic pain",[1]; end of treatment,−1.3±0.82
same,"change from baseline in maximum VAS, dysmenorrhea",[1]; end of treatment,−51.8±27.01 mm
same,"change from baseline in maximum VAS, dyspareunia",[1]; end of treatment,−10.3±19.76 mm
same,"change from baseline in maximum VAS, pelvic pain",[1]; end of treatment,−46.8±26.29 mm
same,"change from baseline in mean M-B&B score, deep dyspareunia",[1]; end of treatment,−0.208±0.5604
same,"change from baseline in mean M-B&B score, dysmenorrhea",[1]; end of treatment,−1.160±0.4802
same,"change from baseline in mean M-B&B score, pelvic pain",[1]; end of treatment,−0.483±0.4860
same,"change from baseline in mean VAS, dysmenorrhea",[1]; end of treatment,−26.944±19.9212 mm
same,"change from baseline in mean VAS, dyspareunia",[1]; end of treatment,−4.593±15.0878 mm
same,"change from baseline in mean VAS, pelvic pain",[1]; end of treatment,−12.552±12.5609 mm
same,change from baseline in mean score of amount of bleeding (0 to 5),[1]; end of treatment,−2.320±0.7281
same,"change in proportion of days without pain (M-B&B), deep dyspareunia",[1]; end of treatment,21.76±43.266%
same,"change in proportion of days without pain (M-B&B), dysmenorrhea",[1]; end of treatment,80.29±23.327%
same,"change in proportion of days without pain (M-B&B), pelvic pain",[1]; end of treatment,33.42±34.007%
same,"change in proportion of days without pain (VAS), dysmenorrhea",[1]; end of treatment,82.09±24.051%
same,"change in proportion of days without pain (VAS), dyspareunia",[1]; end of treatment,21.76±43.266%
same,"change in proportion of days without pain (VAS), pelvic pain",[1]; end of treatment,40.70±33.342%
same,"mean VAS score, dysmenorrhea",[1]; end of treatment,0.174±1.1623 mm
same,"mean VAS score, dyspareunia",[1]; end of treatment,4.913±10.6249 mm
same,"mean VAS score, pelvic pain",[1]; end of treatment,2.629±5.5783 mm
same,subjects who achieved amenorrhea,[1]; end of treatment,97.5%
same,"subjects without pain in M-B&B score, dysmenorrhea",[1]; end of treatment,97.5%
same,"subjects without pain in M-B&B score, dyspareunia",[1]; end of treatment,56.5%
same,"subjects without pain in M-B&B score, pelvic pain",[1]; end of treatment,63.8%
same,"subjects without pain in VAS score, dysmenorrhea",[1]; end of treatment,97.5%
same,"subjects without pain in VAS score, dyspareunia",[1]; end of treatment,56.5%
same,"subjects without pain in VAS score, pelvic pain",[1]; end of treatment,56.8%
same,"change from baseline in mean VAS, pelvic pain",[1]; [2],−12.552 mm
same,"subjects without pain in VAS score, pelvic pain",[1]; [2],57%
